According to US20030232887A1, “Preparation and use of a stable formulation of allosteric effector compounds” (priority 2002, published 2003):
Converted amounts (≈) assume the structure as drawn. Where two headings read alike, the source gives them in different places.

Legend:
Type in all cases: physicochemical
[1] = Solubility of the allosteric effector compound in water and stabilizing agent solutions
Experimental: (§1) The pKa for 2-[4-[2-[(3,5-dimethylphenyl)amino]-2-oxoethyl]phenoxy]-2-methyl-propionic acid is about 3.5. Accordingly, there is an appreciable solubility at a pH of 7. The solubility of the sodium salt of 2-[4-[2-[(3,5-dimethylphenyl)amino]-2-oxoethyl]phenoxy]-2-methyl-propionic acid at a pH of 7 is about 50 mg/ml. […] It is thought that the addition of a stabilizing agent maintains the integrity of this small aggregate-like species.
This unforeseen problem of formation of particulate matter at concentrations beneath the solubility of the compound is solved by the addition of a stabilizing agent. The effect of the stabilizing agent is to prevent or minimize the formation of sub-visual particulates. In some embodiments, the stabilizing agent may also act as a buffer to stabilize the pH of the solution. In other embodiments, the stabilizing agent and buffering agent are different. The stabilizing agent acts to prevent the formation of significant amounts of sub-visual particulate matter, particularly after heat sterilization. The result is a formulation that can be terminally sterilized, have a long shelf life, and meet the USP 25 <788> sub-visual particulate matter requirements. Without being bound by theory, it is believed that stabilization of pH is one factor contributing to stabilization of the formulation; however, the pH of the solution alone is insufficient to stabilize the solutions. […] If necessary, the pH of the solution can be adjusted to a pH of at least about 6, preferably from about 6 to about 11. More preferably, the pH is adjusted to about 6.5 to about 9.0. More preferably, the pH is adjusted to about 7.5 to 8.5. The pH may be adjusted by the addition of any appropriate acid or base. Suitable acids may be amino acids, carboxylic acids, phosphoric acid, hydrochloric acid or other acids suitable for pharmaceutical preparations. Suitable bases include, sodium hydroxide or other bases suitable for pharmaceutical preparations.
Accordingly, stabilizing agents having an amine group are contemplated within the scope of this invention.

[2] = pKa
Experimental: as §1

[3] = Chemical and physical (precipitate) stability of the formulation
Experimental: as §1
The allosteric modifying compound is chemically and physically stable between a pH of about 6 and about 11. Preferably, the composition has a pH of at least about 6. More preferably, the composition has a pH ranging from about 6 to about 11. Most preferably, the composition has a pH ranging from about 6.5 to about 9.0.
The composition of the present invention is chemically stable and stable with respect to the formation of particulate matter for at least about thirty days. This makes the composition particularly useful at the administration site because no additional steps, such as filtering the composition, are necessary prior to administration to a patient. Time is time after sterilization.

[4] = 20 mg/mL (58.7 mmol/L), pH 7.5, no stabilizing compound, heat sterilized

solubility ([1]; aqueous buffer, 0.5 M arginine solution, 23° C., pH 7.2-7.5, read-out: solubility) [mg/mL] | solubility ([1]; aqueous buffer, 0.5 M tris solution, 23° C., pH 7-8, read-out: solubility) [mg/mL] | solubility ([1]; aqueous buffer, 100-200 mM meglumine solutions, 23° C., pH 7.5, read-out: increase in solubility) [mg/mL] | solubility ([1]; in water, 23° C., read-out: solubility) [mg/mL] | pKa [2] | chemical degradation [3, 4] | solubility ([1]; pH 7, aqueous buffer, pH of 7, read-out: solubility) [mg/mL] | SMILES | precipitate formation after heat sterilization [3, 4] | precipitation / subvisual particulate formation in solution ([3]; 20 mg/ml, pH about 7, 25° C.)
155 (≈ 454 mM) | 99.9 (≈ 293 mM) | ~12 (≈ 35.1 mM) | ~44 (≈ 129 mM) | ~3.5 | stable to chemical degradation |  | Cc1cc(C)cc(NC(=O)Cc2ccc(OC(C)(C)C(=O)O)cc2)c1 [2-[4-[2-[(3,5-dimethylphenyl)amino]-2-oxoethyl]phenoxy]-2-methyl-propionic acid] | developed a precipitate of the allosteric modifier within one week after sterilization | begins to precipitate out of solution, forming subvisual particulate
 |  |  |  |  |  | ~50 | Cc1cc(C)cc(NC(=O)Cc2ccc(OC(C)(C)C(=O)[O-])cc2)c1.[Na+] [sodium salt of 2-[4-[2-[(3,5-dimethylphenyl)amino]-2-oxoethyl]phenoxy]-2-methyl-propionic acid] |  | 
